Experimental data: article PMC4138991, “Building a Better Dynasore: The Dyngo Compounds Potently Inhibit Dynamin and Endocytosis” (Traffic (Copenhagen, Denmark), 2013)

Key:
[1] = target: native sheep brain dynamin I (Ovis aries, UniProt A0ACI6PDC7); test: PS liposome-stimulated (helical) dynamin I GTPase assay (Malachite Green); assay type: biochemical; settings: GTP 50–250 μM, 4a 0.5–6 μM, 17 nM dynamin I, Lineweaver–Burke
From the text: Recombinant dynamin I was used only for the data in Table 2. The dynamin antibodies were from: Dynamin I—in‐house YF2 antibodies, raised in rabbits against two different synthetic peptides: dynamin I 629‐647 ([…]) and dynamin I 765–778 ([…]), used at 1/2000 dilution, as previously described 53; Dynamin II—Santa Cruz (C‐18, sc‐6400, used at 1/1000) and Dynamin III—Santa Cruz (P‐13, sc‐69472, used at 1/500 dilution).
The Malachite Green colorimetric GTPase assay was as described 10. Dynamin I activity was measured in its SAI activity state or was stimulated by three different methods. As each stimulus activates dynamin to different extents, each assay required different dynamin concentrations. First, maximal dynamin activity was stimulated by sonicated PS liposomes 10. […] Finally, dynamin (500 nM) SAI activity was measured using high concentrations of dynamin, which promote its cooperative self‐assembly into rings (but not helices) 26. […] After the Vmax and Km values were determined, the data were transformed using the Lineweaver–Burke equation, 1/v = 1/Vmax + (Km/Vmax)(1/[S]).

[2] = test system: cultured CGNs; test: HRP labeling of endocytosis pathways (electron microscopy) in CGNs; assay type: cell-based, rat; settings: 30 μM, 15 min, 80 Hz 10 s
Procedure: Granule neuron cultures were prepared from the cerebella of 7‐day‐old rat pups as previously described 57. In all experiments, neurons were used between 8 and 10 days in vitro.
Granule neurons were processed for electron microscopy as previously described 40. Briefly, cells were transferred to incubation medium for 10 min and subsequently incubated with or without 30 μM 4a for 15 min. Cultures were next stimulated with 800 action potentials (80 Hz) in incubation medium supplemented with HRP (10 mg/mL) in the presence or absence of 4a. Cells were fixed in a 2% solution of glutaraldehyde in phosphate‐buffered saline for 30 min at 37°C directly after stimulation. After washing with 100 mM Tris (pH 7.4) cells were exposed to 0.1% diaminobenzidine and 0.2% H2O2 in 100 mM Tris. On development of color, cells were washed with 100 mM Tris and subsequently stained with 1% osmium tetroxide for 30 min. After washing, cells were post‐stained with 2% uranyl acetate for 15 min, then dehydrated using ethanol series and polypropylene oxide and embedded using Durcupan. Samples were sectioned, mounted on grids and viewed using a FEI Tecnai 12 transmission electron microscope. Intracellular structures that were less than 100 nm in diameter were arbitrarily designated to be synaptic vesicles, whereas larger structures were designated to be endosomes.

Chain of native sheep brain dynamin I (A0ACI6PDC7 entry or part of it): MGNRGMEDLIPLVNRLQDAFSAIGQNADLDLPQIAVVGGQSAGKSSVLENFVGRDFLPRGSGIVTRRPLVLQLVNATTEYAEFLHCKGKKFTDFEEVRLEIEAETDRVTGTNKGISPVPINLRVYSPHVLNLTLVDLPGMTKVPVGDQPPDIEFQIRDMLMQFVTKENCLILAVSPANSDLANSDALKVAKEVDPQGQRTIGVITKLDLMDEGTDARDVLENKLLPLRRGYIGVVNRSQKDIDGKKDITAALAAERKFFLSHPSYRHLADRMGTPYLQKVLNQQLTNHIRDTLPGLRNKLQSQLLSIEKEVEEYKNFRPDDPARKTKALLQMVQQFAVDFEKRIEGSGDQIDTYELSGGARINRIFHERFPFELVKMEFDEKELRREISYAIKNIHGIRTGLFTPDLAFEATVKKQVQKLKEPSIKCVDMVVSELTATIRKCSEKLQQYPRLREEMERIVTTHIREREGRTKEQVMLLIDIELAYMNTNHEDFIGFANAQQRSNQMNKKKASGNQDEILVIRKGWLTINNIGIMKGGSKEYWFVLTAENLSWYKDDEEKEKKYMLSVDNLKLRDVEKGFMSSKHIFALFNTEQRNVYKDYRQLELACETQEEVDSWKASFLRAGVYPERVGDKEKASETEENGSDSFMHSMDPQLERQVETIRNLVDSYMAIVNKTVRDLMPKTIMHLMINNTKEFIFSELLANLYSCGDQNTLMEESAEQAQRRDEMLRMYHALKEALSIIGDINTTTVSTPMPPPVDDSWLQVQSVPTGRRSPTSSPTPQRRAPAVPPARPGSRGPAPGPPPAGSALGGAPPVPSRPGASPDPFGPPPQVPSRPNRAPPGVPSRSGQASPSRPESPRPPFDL

O=C(N/N=C/c1cc(O)c(O)cc1O)c1cc2ccccc2cc1O [4a, (E)-3-Hydroxy-N'-(2,4,5-trihydroxybenzylidene) -2-naphthohydrazide]
kinetics of inhibition with respect to GTP [1]: non‐competitive inhibitor
number of HRP-labeled endosomes (ADBE) [2]: caused a decrease in the number
number of HRP-labeled synaptic vesicles (neuronal CME) [2]: significant reduction in the number of labeled synaptic vesicles
